Consider two compounds from paper PMC10706087, “The Subtype Selectivity in Search of Potent Hypotensive Agents among 5,5-Dimethylhydantoin Derived α1-Adrenoceptors Antagonists” (International Journal of Molecular Sciences, 2023).

Structures are written as SMILES. Counter-ions that a name gives are not always drawn.

Assay [1] relates to arterial blood pressure of normotensive Wistar rats. The experiment in a line: Influence on blood pressure in normotensive anesthetized rats after i.v. administration. The assay is classed as in vivo, rat. The following applies: for Diastolic blood pressure / Systolic blood pressure: 1.0 mg/kg i.v., mean, n = 6. An outline of the steps:
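Normotensive rats were given thiopental (75 mg/kg) intraperitoneally as anesthesia. A heparinized saline-filled polyethylene tube was placed in the left carotid artery, and blood pressure was recorded with a PowerLab Apparatus. Compounds dissolved in ethyl alcohol 5% − kolliphor 5% − water 90% were injected intravenously at 1 mL/kg after 20 min of stabilization. Pressures were compared by two-way ANOVA with Sidak's post-hoc test.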

Assay [2] deals with α1-adrenoceptors (α1-ARs), rat cerebral cortex. The following applies: published previously; read-out: α1-adrenoceptor affinity Ki; cited from earlier work.
A further assay relates to α1D- and α1A-AR subtype. On the set-up: method as in PMID 21753885. As to conditions: cited from earlier work.
The mark [3] stands for this setting: 0 min (initial, before administration).

By Ki is commonly meant the dissociation constant of the complex between target and ligand, obtained from inhibition or displacement. Take `COc1ccccc1N1CCN(CCCNc2cc(=O)n(C)c(=O)n2C)CC1` [Urapidil, urapidil hydrochloride, reference compound]: the Diastolic blood pressure was 93.0 in assay [1] (setting [3]); 77.5 in assay [1] (5 min); 75.5 in assay [1] (10 min); 76.0 in assay [1] (20 min); 78.8 in assay [1] (30 min); 79.2 in assay [1] (40 min). Besides, the Diastolic blood pressure in assay [1] (50 min) is reported as 80.8; in assay [1] (60 min), 81.2. Besides, the Systolic blood pressure in assay [1] (setting [3]) is given as 127.3; in assay [1] (5 min) it was 111.3; in assay [1] (10 min), 109.5; in assay [1] (20 min), 110.2; in assay [1] (30 min), 112.2; in assay [1] (40 min), 112.7. Also, the results for the Systolic blood pressure in assay [1] (50 min) and in assay [1] (60 min) were 114.0 and 115.0, respectively. Moreover, the “lowest hypotensive (effective) dose” value in assay [1] (i.v., normotensive anesthetized rats) was found to be 1.0 mg/kg. The Ki in assay [2] was 128 nM.

Consider `COc1ccccc1N1CCN(CC(O)COc2cccc3ccccc23)CC1` (stereo not shown) [naftopidil], for which the “higher affinity for α1D- than for α1A-AR subtype” value with α1D- and α1A-AR subtype was 3 fold.
